Measurements from publication PMC10810714, “Antiretroviral Drug Exposure and Response in Obese and Morbidly Obese People With Human Immunodeficiency Virus (HIV): A Study Combining Modelling and Swiss HIV Cohort Data” (Clinical Infectious Diseases: An Official Publication of …, 2023).
Where two headings read alike, the source gives them in different places.

Experiments:
[1] = Observed pharmacokinetics of antiretrovirals in nonobese and obese individuals (SHCS therapeutic drug monitoring data and literature studies, noncompartmental analysis); details: for AUC(0-t) / Cmax / half-life: human, plasma, po, nonobese individuals; for AUC(0-t): AUCt; for AUC(0-t) / Cmax: observed; for AUC(0-t) / Cmax / half-life / Cτ, observed, nonobese individuals: nonobese (BMI range per drug), GM; for half-life: t1/2, observed
Text: (§1) We took several steps to analyse the impact of obesity on the ARVs exposure and response. First, we implemented our in-house PBPK model with our recently published virtual White obese population to simulate the pharmacokinetics of ARVs in nonobese and obese individuals. Next, we verified the simulations against the TDM data collected during the follow-up visits of the SHCS (multiple drug levels per individual were allowed [more information on the SHCS in the homonymous section in the Supplementary Material]). We then applied the verified model to extrapolate the pharmacokinetics across different obesity classes. Finally, the clinical relevance of obesity-related changes on drug response was evaluated by analyzing HIV viral load and the corresponding TDM values in obese and nonobese individuals in the SHCS.
(§2) All ARV drug models, except for doravirine (Supplementary Table 1), were previously developed and verified to predict the pharmacokinetics in healthy and elderly PWH [6, 12]. […] The TDM data were excluded if the participant’s age was younger than 20 or older than 50 years to avoid the age-related confounding effect on the pharmacokinetics, if a nonstandard ARV dosage was used, and if concurrent medications with inhibitory or inducing effects were used. The pharmacokinetic parameters including peak plasma concentration (Cmax), area under the curve to time t (AUCt), and trough concentration (Cτ) were derived from the TDM data using noncompartmental analysis.
(§3) A literature search was also performed to identify pharmacokinetic studies with ARVs conducted in obese and nonobese individuals. Data on the study design, characteristics of the participants, and pharmacokinetic results were collected. […] Available concentration-time profiles were digitalized using GetData Graph Digitizer V.2.26. The virtual trials were conducted by matching the participants’ demographics (eg, age, proportion of females, and BMI) and the ARV dosing regimen (Supplementary Table 2). The models were considered verified if the simulations were within 2-fold of observed data.
The Swiss HIV Cohort Study (SHCS) is an ongoing, nationwide, multicenter, clinic-based prospective cohort study in Switzerland with continuous enrollment and follow-up (twice a year) of people with HIV (PWH). Socio-demographic, clinical and laboratory data are recorded in detail. […] The collection of therapeutic drug monitoring (TDM) data in the SHCS database was initiated in 1998. All available TDM data for each evaluated antiretroviral drug were extracted from the SHCS database representing 6210 and 575 data points for the verification of the simulations in non-obese and obese individuals, respectively.

[2] = test system: HIV viral load; experiment: Drug response in obese versus nonobese participants in the SHCS (concentration below efficacy threshold and viral load >50 copies/mL)
Experimental: The viral load was analyzed in conjunction with the TDM data to evaluate whether a decrease in ARV exposure in obese PWH is associated with a viral load of more than 50 copies/mL (the viral load measured on the date of the TDM assessment was considered for this evaluation).

[3] = PBPK model virtual trials matched to the observed studies (model verification, nonobese vs obese); set-up: species or system human; details: for AUCt, Ratio Predicted/Observed, Nonobese / Cmax, Ratio Predicted/Observed, Nonobese / Cτ, Ratio Predicted/Observed, Nonobese / t1/2, Ratio Predicted/Observed, Nonobese: nonobese individuals; for Predictions within x-fold of observed clinical data: pharmacokinetic parameters in obese and nonobese individuals, 1.25-fold 'for the most part'
Text: as §1, §2, §3

[4] = Black African PWH, median BMI 25.3 vs 32.8 kg/m^2; cited from earlier work
[5] = cited from earlier work; for AUCt, observed, nonobese individuals / Cmax, observed, nonobese individuals / Cτ, observed, nonobese individuals / t1/2, observed, nonobese individuals: standard oral dose at steady state, GM (mean for etravirine, emtricitabine, tenofovir), literature studies only, ref Supplementary Table 2 [9-16, 21-24]
[6] = over 18 mo after switching from tenofovir disoproxil fumarate; cited from earlier work
[7] = standard oral dose at steady state, SHCS TDM data with or without literature data
[8] = BMI 18.5–30 kg/m^2, viral load above 50 copies/mL
[9] = BMI >30 kg/m^2, viral load above 50 copies/mL
[10] = obese (BMI >=30, range per drug), standard oral dose at steady state, GM (mean for etravirine), SHCS TDM data with or without literature data
[11] = obese BMI 36–46 kg/m^2, 245 mg QD, mean, literature study only

Molecule | AUC(0-t) [1, 7] [ng·h/mL] | Cmax [1, 7] [ng/mL] | half-life [1, 7] [h] | Cτ, observed, nonobese individuals [1, 7] [ng/mL] | % PWH with concentration below efficacy threshold ([2]; BMI 18.5–30 kg/m^2) [%] | % PWH with virological failure amongst those with concentration below efficacy threshold [2, 8] [%] | % PWH with concentration below efficacy threshold ([2]; BMI >30 kg/m^2) [%] | % PWH with virological failure amongst those with concentration below efficacy threshold [2, 9] [%] | AUCt, Ratio Predicted/Observed, Nonobese [3] | Cmax, Ratio Predicted/Observed, Nonobese [3] | Cτ, Ratio Predicted/Observed, Nonobese [3] | t1/2, Ratio Predicted/Observed, Nonobese [3] | Cτ, observed, obese individuals [1, 10] [ng/mL] | AUCt, observed, nonobese individuals [5] [ng·h/mL] | Cmax, observed, nonobese individuals [5] [ng/mL] | Cτ, observed, nonobese individuals [5] [ng/mL] | other results
O=C(NCc1c(F)cc(F)cc1F)c1cn2c(c(O)c1=O)C(=O)N1[C@H]3CC[C@H](C3)O[C@@H]1C2 [Bictegravir, bictegravir] | 85800 | 5240 | 20.6 | 2373 | 1.5 | 0 | 0 | 0 | 0.97 | 0.87 | 1.01 | 1.27 |  |  |  |  | Predictions within x-fold of observed clinical data [3]: ≤ 1.5 fold
C[C@@H]1CCO[C@H]2Cn3cc(C(=O)NCc4ccc(F)cc4F)c(=O)c(O)c3C(=O)N12 [Dolutegravir, dolutegravir] | 45400 | 3320 | 12.6 | 889 | 2.1 | 0.3 | 2.6 | 0 |  |  |  |  | 940 |  |  |  | Reduction in AUCt, obese vs nonobese [4]: 9%; Reduction in Cmax, obese vs nonobese [4]: 14%; Reduction in Cτ, obese vs nonobese [4]: 1%
O=C1Nc2ccc(Cl)cc2[C@@](C#CC2CC2)(C(F)(F)F)O1 [Efavirenz, efavirenz] | 52200 | 3170 | 20.2 | 1751 | 2.3 | 1.1 | 5.2 | 1.1 |  |  |  |  | 1512 |  |  |  | 
Nc1nc(=O)n([C@@H]2CS[C@H](CO)O2)cc1F [Emtricitabine, emtricitabine] |  |  |  |  |  |  |  |  | 1.10 | 0.99 | 1.35 | 1.86 |  | 9589.4 | 1640.2 | 67.1 | t1/2, observed, nonobese individuals [5]: 9.4 h
Cc1cc(C#N)cc(C)c1Oc1nc(Nc2ccc(C#N)cc2)nc(N)c1Br [Etravirine, etravirine] |  |  |  |  | 32.1 | 11.9 | 10 | 0 |  |  |  |  | 313 | 7970 | 949 | 464 | 
Cc1nnc(C(=O)NC(C)(C)c2nc(C(=O)NCc3ccc(F)cc3)c(O)c(=O)n2C)o1 [Raltegravir, raltegravir] |  |  |  | 142 | 4 | 1.6 | 4.7 | 0 |  |  |  |  | 171 |  |  |  | 
Cc1cc(/C=C/C#N)cc(C)c1Nc1ccnc(Nc2ccc(C#N)cc2)n1 [Rilpivirine, rilpivirine] |  |  |  |  | 15 | 1.9 | 0 | 0 | 1.05 | 0.93 | 0.96 | 0.65 | 89.2 | 2333 | 159.7 | 75.2 | Cmax, observed, obese individuals [1, 10]: 147.7 ng/mL; AUCt, Ratio Obese/Nonobese, Observed ([1]; observed data): 0.85; Cmax, Ratio Obese/Nonobese, Observed ([1]; observed data): 0.92; Cτ, Ratio Obese/Nonobese, Observed ([1]; observed data): 1.19; t1/2, observed, nonobese individuals [5]: 47.2 h; AUCt, Ratio (Predicted Ratio Obese/Nonobese)/(Observed Ratio Obese/Nonobese) [3]: 1.16; Cmax, Ratio (Predicted Ratio Obese/Nonobese)/(Observed Ratio Obese/Nonobese) [3]: 1.09; Cτ, Ratio (Predicted Ratio Obese/Nonobese)/(Observed Ratio Obese/Nonobese) [3]: 0.87; AUCt, Ratio Predicted/Observed, Obese ([3]; obese individuals): 1.23; Cmax, Ratio Predicted/Observed, Obese ([3]; obese individuals): 1.00; Cτ, Ratio Predicted/Observed, Obese ([3]; obese individuals): 0.84; Predictions within x-fold of observed clinical data [3]: ≤ 1.25 fold
CC(C)c1nc(CN(C)C(=O)N[C@H](C(=O)N[C@@H](Cc2ccccc2)C[C@H](O)[C@H](Cc2ccccc2)NC(=O)OCc2cncs2)C(C)C)cs1 [Ritonavir, ritonavir] | 5740 | 480 | 5.4 | 91.4 |  |  |  |  |  |  |  |  | 71.3 |  |  |  | 
C[C@H](Cn1cnc2c(N)ncnc21)OCP(=O)(O)O [Tenofovir, tenofovir] |  |  |  |  |  |  |  |  | 1.06 | 1.00 | 1.11 | 1.15 |  | 2858.4 | 300.5 | 58.2 | t1/2, observed, nonobese individuals [5]: 14.9 h; AUCt, observed, obese individuals [5, 11]: 2346 ng·h/mL; Cmax, observed, obese individuals [5, 11]: 263 ng/mL; Cτ, observed, obese individuals [5, 11]: 47 ng/mL; t1/2, observed, obese individuals [5, 11]: 13 h; AUCt, Ratio Predicted/Observed, Obese ([3]; obese individuals): 0.95; Cmax, Ratio Predicted/Observed, Obese ([3]; obese individuals): 0.83; Cτ, Ratio Predicted/Observed, Obese ([3]; obese individuals): 1.13; t1/2, Ratio Predicted/Observed, Obese ([3]; obese individuals): 1.75
CC(C)OC(=O)[C@H](C)N[P@](=O)(CO[C@H](C)Cn1cnc2c(N)ncnc21)Oc1ccccc1 [tenofovir alafenamide] |  |  |  |  |  |  |  |  |  |  |  |  |  |  |  |  | Increase in weight [6]: 1.7 kg
darunavir/ritonavir |  |  |  |  |  | 1.6 |  | 0 |  |  |  |  |  |  |  |  | 
